Experimental data: PMC8406298, “Discovery of Fungus-Specific Targets and Inhibitors Using Chemical Phenotyping of Pathogenic Spore Germination” (mBio, 2021)

What was measured:
[1] = test system: Cryptococcus yeast (CHY3833 and CHY3836); experiment: Yeast replication secondary screen (OD600); assay type: cell-based, Cryptococcus neoformans serotype D (deneoformans); conditions: 10 μM, 12 h at 30°C
Method: (ii) Yeast replication. CHY3833 and CHY3836 were each grown in YPD liquid overnight at 30°C to saturation and then resuspended in 0.5× YPD at an OD600 of 0.005. Strains were aliquoted into 384-well plates with inhibitors and grown for 12 h at 30°C at […] before OD600 readings were taken. Compounds that caused a >10% decrease in growth were considered yeast growth inhibitors.

[2] = test system: normal human dermal fibroblasts (NHDF) cells; experiment: Fibroblast cytotoxicity (CellTiter-Glo); assay type: cell-based; conditions: 10 µM
Procedure, shortened: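 Normal human dermal fibroblasts, 1 × 10^3 per well, exposed to compounds at 10 μM for 72 h at 37°C. Viability read as ATP-dependent CellTiter-Glo luminescence. Dose-response runs titrated compounds from 80 μM to 0.5 μM in duplicate.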

| Structure (SMILES) | Yeast Inhibition: % Inhibition [1] [%] | Cytotoxicity: Relative Cell Viability (% of Negative Control) [2] |
| --- | --- | --- |
| O=C(Nc1cccc(C(F)(F)F)c1)C(Cl)C(=O)c1ccccc1 (centres unmarked) [compound 4162926] | 101.5 | 20.8 % of Negative Control |
| O=C(C1CCC1)N1CCCCC(c2ccc(Cl)cc2)C1 (centres unmarked) [compound 76150259] | -2.1 | 108.6 % of Negative Control |
| COC(=O)C1=C(N)OC2=C(C(=O)CCC2)C1c1ccc(OC)c(OC)c1 (centres unmarked) [compound 3355288] | 9.4 | 104.5 % of Negative Control |
| O=C(CCc1ccccc1Br)N1CCC(c2ccsc2)CC1 [compound 71807075] | 9.6 | 93.1 % of Negative Control |
| O=S(=O)(Nc1ccc(Br)cc1F)c1ccc(Cl)c(C(F)(F)F)c1 [compound 1307471] | 59.9 | 98.7 % of Negative Control |
| O=C(COc1coc(CN2CCc3ccccc32)cc1=O)OCc1ccccc1 [compound 7178481] | 15.8 | 88.3 % of Negative Control |
| CCOC(=O)c1ccc(N2C(=O)CC(SCC(=O)Nc3ccc(S(N)(=O)=O)cc3)C2=O)cc1 (centres unmarked) [compound 16187117] | 83.7 | 118.0 % of Negative Control |
| C=C(C)Cn1c(C2CC(=O)N(c3ccccc3F)C2)nc2ccccc21 (centres unmarked) [compound 4754109] | 6.6 | 95.9 % of Negative Control |
| CN1C(=O)c2cccc(NC(=O)c3ccnn3C)c2C1=O [compound 25835862] | 41.6 | 104.6 % of Negative Control |
| CN(C)c1ccc(NC(=O)/C=C/c2ccccc2Cl)cc1 [compound 723732] | 27.8 | 79.8 % of Negative Control |
| CN(Cc1ccccc1)C(=O)COc1ccc(Br)cc1 [compound 4690650] | 25.9 | 66.8 % of Negative Control |
| Cc1cc(C(=O)NCCn2nc(C(F)(F)F)c3c2CCCC3)c(C)o1 [compound 72718563] | 79.7 | 92.0 % of Negative Control |
| CCCC(=O)N1CCN(c2nc3c(C)c(Cl)ccc3s2)CC1 [compound 7294823] | 31.5 | 104.9 % of Negative Control |
| COC(=O)c1c(N)sc(C)c1-c1ccc(F)cc1 [compound 874714] | 87.6 | 75.9 % of Negative Control |
| c1ccc(-c2nc([P+](c3ccccc3)(c3ccccc3)c3ccccc3)c(N3CCCCCC3)o2)cc1 [compound 4345313] | 101.2 | 28.8 % of Negative Control |
| Cc1nc(NC(=O)CCc2ccccc2)sc1C [compound 733834] | 89.7 | 96.8 % of Negative Control |
| O=S(=O)(NCc1csc(-c2ccccc2)n1)c1cc(Cl)ccc1Cl [compound 7119035] | 38.8 | 89.2 % of Negative Control |
| O=S(=O)(Nc1nc2c(Cl)cccc2s1)c1ccc(Cl)s1 [compound 16934160] | -6.1 | 75.3 % of Negative Control |
| Cc1nc(Oc2ccccc2)cc(N2CCN(C(=O)/C=C/c3ccccc3)CC2)n1 [compound 42065409] | 15.5 | 90.0 % of Negative Control |
| Cc1ccc(C)c(N2C(=O)C=CC2=O)c1 [compound 709153] | 101.9 | 3.3 % of Negative Control |
| Cl.Cl.OC(COc1cccc2ccccc12)CN1CCN(c2ccc(F)cc2)CC1 (centres unmarked) [compound 45283772] | 44.0 | 96.8 % of Negative Control |
| Cc1ccc(COC(=O)c2ccc(C3Nc4ccccc4S(=O)(=O)N3)cc2)cc1 (centres unmarked) [compound 44117349] | 15.4 | 106.4 % of Negative Control |

| Structure (SMILES) | Yeast Inhibition: % Inhibition [1] [%] | Cytotoxicity: Relative Cell Viability (% of Negative Control) [2] |
| --- | --- | --- |
| COc1ccc(/C=C/c2nc3ccccc3[nH]2)cc1 [compound 5769808] | 70.2 | 14.4 % of Negative Control |
| CCc1ccc2nc(N)sc2c1 [compound 773093] | 73.1 | 62.5 % of Negative Control |
| Cc1ccc(N2C(=O)CC(Sc3ccccc3C(=O)O)C2=O)c(Br)c1 (centres unmarked) [compound 2919713] | 67.2 | 94.3 % of Negative Control |
| Cc1cc(C)c(S(=O)(=O)Nc2nc(C(F)(F)F)cs2)c(C)c1 [compound 4413055] | 9.5 | 49.5 % of Negative Control |
| O=C(NCCOc1ccc(F)cc1)c1ccc(C(F)(F)F)cc1 [compound 30865811] | 68.2 | 100.1 % of Negative Control |
| O=C(CCSc1ccc(Cl)cc1)Nc1ccc2scnc2c1 [compound 18585549] | 29.1 | 96.1 % of Negative Control |
| COc1ccccc1NS(=O)(=O)c1cc(Cl)ccc1Cl [compound 766532] | 96.0 | 56.4 % of Negative Control |
| ClC(Cl)(c1nnnn1-c1ccccc1)c1nnnn1-c1ccccc1 [compound 3090522] | 87.7 | 90.6 % of Negative Control |
| Fc1ccc(Nc2ccnc3ccc(Cl)cc23)c(F)c1 [compound 17016619] | 34.0 | 67.9 % of Negative Control |
| Cc1nc(NCc2ccccc2)c2ccsc2n1 [compound 2238994] | 84.9 | 75.7 % of Negative Control |
| Cc1nc(NC2CCCCC2)c2ccsc2n1 [compound 2239015] | 45.4 | 75.4 % of Negative Control |
| Cc1nc(C)c(C(=O)NCCn2ncc3c(N4CCN(c5ccc(F)cc5)CC4)ncnc32)s1 [compound 42099839] | 43.6 | 79.3 % of Negative Control |
| O=C1NC(=S)S/C1=C\c1ccc(OC(F)(F)F)cc1 [compound 16433415] | 82.9 | 79.7 % of Negative Control |
| Cc1ccc(OCCOCC(O)CN2CCN(c3ccc(F)cc3)CC2)cc1C (centres unmarked) [compound 16804490] | 17.9 | 94.5 % of Negative Control |
| O=C(NN1C(=O)/C(=C\c2ccco2)SC1=S)c1ccc(OC(F)F)cc1 [compound 1391595] | 65.6 | 93.6 % of Negative Control |
| Cc1ccc(Nc2cc(Cl)nc(N)n2)cc1Cl [compound 243059] | 98.9 | 46.1 % of Negative Control |
| O=C1CC(c2ccccc2)[Se]C(c2ccccc2)C1 (centres unmarked) [compound 3287596] | 100.2 | 45.9 % of Negative Control |
| O=C(NCCc1nc2c(c(C(F)(F)F)n1)CCCC2)c1ccc(F)cc1Cl [compound 71797126] | 20.3 | 106.4 % of Negative Control |
| CC1CCN(C(=O)COc2ccc(-c3ccccc3)cc2)CC1 [compound 717711] | 28.9 | 90.0 % of Negative Control |
| O=Cc1sc(=O)n(-c2ccccc2)c1Cl [compound 2793380] | 78.0 | 5.7 % of Negative Control |
| O=C(Nc1nc2c(s1)CCc1ccccc1-2)c1ccco1 [compound 701070] | 1.7 | 92.9 % of Negative Control |
